# From patent publication US20120329787A1, “FUNGICIDAL PYRANONES AND OXAZINONES” (E.I. DU PONT DE NEMOURS AND COMPANY, priority 2011, published 2012)
# Marks after values point to notes of the source that are not given here.
# Legend:
# Format in all cases: in vivo
# Botrytis cinerea = assay: Test A: tomato Botrytis, spray on tomato seedlings the day before inoculation
# Text: General protocol for preparing test suspensions for Tests A-I: the test compounds were first dissolved in acetone in an amount equal to 3% of the final volume and then suspended at the desired concentration (in ppm) in acetone and purified water (50/50 mix by volume) containing 250 ppm of the surfactant Trem® 014 (polyhydric alcohol esters). The resulting test suspensions were then used in Tests A-I. Spraying a 200 ppm test suspension to the point of run-off on the test plants was the equivalent of a rate of 500 g/ha. […] (An asterisk “*” next to the rating value indicates a 40 ppm test suspension was used.) The test suspension was sprayed to the point of run-off on tomato seedlings. The following day, the seedlings were inoculated with a spore suspension of Botrytis cinerea (the causal agent of tomato Botrytis) and incubated in a saturated atmosphere at 20° C. for 48 h, and then moved to a growth chamber at 24° C. for 3 additional days, after which time visual disease ratings were made. […] A dash (-) indicates no test results. All results are for 200 ppm except where followed by an asterisk “*”, which indicates a 40 ppm.
# Septoria tritici = assay: Test F: wheat leaf blotch, spray on wheat seedlings the day before inoculation
# Text: General protocol for preparing test suspensions for Tests A-I: the test compounds were first dissolved in acetone in an amount equal to 3% of the final volume and then suspended at the desired concentration (in ppm) in acetone and purified water (50/50 mix by volume) containing 250 ppm of the surfactant Trem® 014 (polyhydric alcohol esters). The resulting test suspensions were then used in Tests A-I. Spraying a 200 ppm test suspension to the point of run-off on the test plants was the equivalent of a rate of 500 g/ha. […] (An asterisk “*” next to the rating value indicates a 40 ppm test suspension was used.) The test suspension was sprayed to the point of run-off on wheat seedlings. The following day, the seedlings were inoculated with a spore suspension of Septoria tritici (the causal agent of wheat leaf blotch) and incubated in a saturated atmosphere at 24° C. for 48 h, and then the seedlings were moved to a growth chamber at 20° C. for 19 additional days, after which time visual disease ratings were made. […] A dash (-) indicates no test results. All results are for 200 ppm except where followed by an asterisk “*”, which indicates a 40 ppm.
# Alternaria solani = assay: Test B: tomato early blight, spray on tomato seedlings the day before inoculation
# Text: General protocol for preparing test suspensions for Tests A-I: the test compounds were first dissolved in acetone in an amount equal to 3% of the final volume and then suspended at the desired concentration (in ppm) in acetone and purified water (50/50 mix by volume) containing 250 ppm of the surfactant Trem® 014 (polyhydric alcohol esters). The resulting test suspensions were then used in Tests A-I. Spraying a 200 ppm test suspension to the point of run-off on the test plants was the equivalent of a rate of 500 g/ha. […] (An asterisk “*” next to the rating value indicates a 40 ppm test suspension was used.) The test suspension was sprayed to the point of run-off on tomato seedlings. The following day, the seedlings were inoculated with a spore suspension of Alternaria solani (the causal agent of tomato early blight) and incubated in a saturated atmosphere at 27° C. for 48 h, and then moved to a growth chamber at 20° C. for 5 days, after which time visual disease ratings were made. […] A dash (-) indicates no test results. All results are for 200 ppm except where followed by an asterisk “*”, which indicates a 40 ppm.
# [1] = tested on: Puccinia recondita f. sp. tritici; assay: Test H: wheat leaf rust, spray on wheat seedlings the day before inoculation; details: sprayed before inoculation
# Text: General protocol for preparing test suspensions for Tests A-I: the test compounds were first dissolved in acetone in an amount equal to 3% of the final volume and then suspended at the desired concentration (in ppm) in acetone and purified water (50/50 mix by volume) containing 250 ppm of the surfactant Trem® 014 (polyhydric alcohol esters). The resulting test suspensions were then used in Tests A-I. Spraying a 200 ppm test suspension to the point of run-off on the test plants was the equivalent of a rate of 500 g/ha. […] (An asterisk “*” next to the rating value indicates a 40 ppm test suspension was used.) The test suspension was sprayed to the point of run-off on wheat seedlings. The following day, the seedlings were inoculated with a spore suspension of Puccinia recondita f. sp. tritici (the causal agent of wheat leaf rust) and incubated in a saturated atmosphere at 20° C. for 24 h, and then moved to a growth chamber at 20° C. for 6 days, after which time visual disease ratings were made Results for Tests A-I are given in Table A. […] A dash (-) indicates no test results. All results are for 200 ppm except where followed by an asterisk “*”, which indicates a 40 ppm.
# [2] = tested on: Erysiphe graminis f. sp. tritici; assay: Test I: wheat powdery mildew, spray on wheat seedlings the day before inoculation
# Text: General protocol for preparing test suspensions for Tests A-I: the test compounds were first dissolved in acetone in an amount equal to 3% of the final volume and then suspended at the desired concentration (in ppm) in acetone and purified water (50/50 mix by volume) containing 250 ppm of the surfactant Trem® 014 (polyhydric alcohol esters). The resulting test suspensions were then used in Tests A-I. Spraying a 200 ppm test suspension to the point of run-off on the test plants was the equivalent of a rate of 500 g/ha. […] (An asterisk “*” next to the rating value indicates a 40 ppm test suspension was used.) The test suspension was sprayed to the point of run-off on wheat seedlings. The following day, the seedlings were inoculated with a spore dust of Erysiphe graminis f. sp. tritici, (the causal agent of wheat powdery mildew) and incubated in a growth chamber at 20° C. for 7 days, after which time visual disease ratings were made. […] A dash (-) indicates no test results. All results are for 200 ppm except where followed by an asterisk “*”, which indicates a 40 ppm.
# Septoria nodorum = assay: Test E: Septoria glume blotch, spray on wheat seedlings the day before inoculation
# Text: General protocol for preparing test suspensions for Tests A-I: the test compounds were first dissolved in acetone in an amount equal to 3% of the final volume and then suspended at the desired concentration (in ppm) in acetone and purified water (50/50 mix by volume) containing 250 ppm of the surfactant Trem® 014 (polyhydric alcohol esters). The resulting test suspensions were then used in Tests A-I. Spraying a 200 ppm test suspension to the point of run-off on the test plants was the equivalent of a rate of 500 g/ha. […] (An asterisk “*” next to the rating value indicates a 40 ppm test suspension was used.) The test suspension was sprayed to the point of run-off on wheat seedlings. […] A dash (-) indicates no test results. All results are for 200 ppm except where followed by an asterisk “*”, which indicates a 40 ppm.
# [3] = tested on: Puccinia recondita f. sp. tritici; assay: Test G: wheat leaf rust, spray on wheat seedlings after inoculation (curative); details: sprayed after inoculation
# Text: General protocol for preparing test suspensions for Tests A-I: the test compounds were first dissolved in acetone in an amount equal to 3% of the final volume and then suspended at the desired concentration (in ppm) in acetone and purified water (50/50 mix by volume) containing 250 ppm of the surfactant Trem® 014 (polyhydric alcohol esters). The resulting test suspensions were then used in Tests A-I. Spraying a 200 ppm test suspension to the point of run-off on the test plants was the equivalent of a rate of 500 g/ha. […] (An asterisk “*” next to the rating value indicates a 40 ppm test suspension was used.) Wheat seedlings were inoculated with a spore suspension of Puccinia recondita f. sp. tritici (the causal agent of wheat leaf rust) and incubated in a saturated atmosphere at 20° C. for 24 h, and then moved to a growth chamber at 20° C. for 2 days. At the end of this time, the test suspension was sprayed to the point of run-off, and then the seedlings were moved to a growth chamber at 20° C. for 4 days after which time visual disease ratings were made. […] A dash (-) indicates no test results. All results are for 200 ppm except where followed by an asterisk “*”, which indicates a 40 ppm.
# [4] = 40 ppm test suspension (asterisk)
Compound,"Test A rating (100 = 100% disease control, 0 = no disease control) (Botrytis cinerea; 200 ppm test suspension) [%]","Test F rating (100 = 100% disease control, 0 = no disease control) (Septoria tritici; 200 ppm test suspension) [%]","Test B rating (100 = 100% disease control, 0 = no disease control) (Alternaria solani; 200 ppm test suspension) [%]","Test H rating (100 = 100% disease control, 0 = no disease control) ([1]; 200 ppm test suspension) [%]","Test I rating (100 = 100% disease control, 0 = no disease control) ([2]; 200 ppm test suspension) [%]","Test E rating (100 = 100% disease control, 0 = no disease control) (Septoria nodorum; 200 ppm test suspension) [%]","Test G rating (100 = 100% disease control, 0 = no disease control) ([3]; 200 ppm test suspension) [%]",also measured
COc1cc(OC)cc(-c2c(-c3ccc(F)cc3F)c(C)oc(=O)c2-c2ccccc2)c1 [Compound 27],98,99,100,100,82,99,93,–
COc1cccc(-c2c(-c3ccccc3F)c(C)oc(=O)c2-c2ccccc2)c1 [Compound 28],100,98,0,99,64,0,0,–
COc1cccc(-c2c(-c3ccc(F)cc3F)c(C)oc(=O)c2-c2ccccc2)c1 [Compound 29],99,99,93,100,55,64,32,–
Cc1oc(=O)c(-c2ccccc2)c(-c2ccccc2Cl)c1-c1ccccc1F [Compound 30],–,–,–,–,–,–,–,"Test A rating (100 = 100% disease control, 0 = no disease control) (Botrytis cinerea; [4]): 99* %; Test F rating (100 = 100% disease control, 0 = no disease control) (Septoria tritici; [4]): 94* %; Test B rating (100 = 100% disease control, 0 = no disease control) (Alternaria solani; [4]): 0* %; Test H rating (100 = 100% disease control, 0 = no disease control) [1, 4]: 91* %; Test I rating (100 = 100% disease control, 0 = no disease control) [2, 4]: 0* %; Test E rating (100 = 100% disease control, 0 = no disease control) (Septoria nodorum; [4]): 0* %; Test G rating (100 = 100% disease control, 0 = no disease control) [3, 4]: 0* %"
Cc1oc(=O)c(-c2ccccc2)c(-c2ccccc2Cl)c1-c1ccc(F)cc1F [Compound 31],–,–,–,–,0,–,–,"Test A rating (100 = 100% disease control, 0 = no disease control) (Botrytis cinerea; [4]): 100* %; Test F rating (100 = 100% disease control, 0 = no disease control) (Septoria tritici; [4]): 98* %; Test B rating (100 = 100% disease control, 0 = no disease control) (Alternaria solani; [4]): 0* %; Test H rating (100 = 100% disease control, 0 = no disease control) [1, 4]: 99* %; Test E rating (100 = 100% disease control, 0 = no disease control) (Septoria nodorum; [4]): 0* %; Test G rating (100 = 100% disease control, 0 = no disease control) [3, 4]: 96* %"
"COc1cc(OC)cc(-c2c(-c3ccc(F)cc3F)c(C)oc(=O)c2-c2ccccc2F)c1 [Compound 33, 5-(2,4-difluorophenyl)-4-(3,5-dimethoxyphenyl)-3-(2-fluorophenyl)-6-methyl-2H-pyran-2-one]",–,–,–,–,–,–,–,"pest or weed control at 200 ppm (Botrytis cinerea; Botrytis cinerea, 120 h, 200 ppm test suspension, read-out: Test A rating (100 = 100% disease control, 0 = no disease control)): 99%; pest or weed control at 200 ppm (Septoria tritici; Zymoseptoria tritici, 504 h, 200 ppm test suspension, read-out: Test F rating (100 = 100% disease control, 0 = no disease control)): 98%; pest or weed control at 200 ppm (Alternaria solani; Alternaria solani, 168 h, 200 ppm test suspension, read-out: Test B rating (100 = 100% disease control, 0 = no disease control)): 100%; pest or weed control at 200 ppm ([1]; Puccinia recondita, 168 h, 200 ppm test suspension, read-out: Test H rating (100 = 100% disease control, 0 = no disease control)): 100%; pest or weed control at 200 ppm ([2]; Blumeria graminis, 168 h, 200 ppm test suspension, read-out: Test I rating (100 = 100% disease control, 0 = no disease control)): 76%; pest or weed control at 40 ppm (Septoria nodorum; Parastagonospora nodorum, 264 h, 40 ppm test suspension (asterisk), read-out: Test E rating (100 = 100% disease control, 0 = no disease control)): 99%; pest or weed control at 200 ppm ([3]; Puccinia recondita, 96 h, 200 ppm test suspension, read-out: Test G rating (100 = 100% disease control, 0 = no disease control)): 99%"
COc1cccc(-c2c(-c3ccc(F)cc3F)c(C)oc(=O)c2-c2ccccc2F)c1 [Compound 34],100,99,99,100,90,99,95,–
